Data: PubChem BioAssay AID330 (DTP/NCI, 2004)
Values joined by “and” are separate entries in the source; they are usually repeats but may differ in a detail not shown here. Equal values may be shown once. Toxic doses and inconclusive results are not listed.

Tested on: P388 leukemia ip, CD2F1 mice, survival T/C
Test: NCI In Vivo Anticancer Drug Screen. Data for tumor model P388 Leukemia (intraperitoneal) in CD2F1 (CDF1) mice
Conditions: endpoint: median survival time, higher = longer survival
Procedure, shortened: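 Mice carrying the transplanted tumor received test compound or vehicle. Survival was recorded in each group, and the value is the treated-group measurement divided by that of the vehicle-treated control group.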

[1] = dose: 50.0 mg/kg/injection, schedule: Q01DX009 (ip), vehicle: other
[2] = dose: 200.0 mg/kg/injection, schedule: Q01DX009 (ip), vehicle: other
[3] = dose: 50.0 mg/kg/injection, schedule: Q01DX009 (ip), vehicle: Klucel (hydroxypropylcellulose) (HPC)
[4] = dose: 100.0 mg/kg/injection, schedule: Q01DX009 (ip), vehicle: Klucel (hydroxypropylcellulose) (HPC)

COc1ccc(C(=O)c2ncccc2C)cc1OC
T/C [1]: 95 % of control | T/C (dose: 100.0 mg/kg/injection, schedule: Q01DX009 (ip), vehicle: other): 99 % of control | T/C [2]: 95 % of control

C=C(C)[Se]c1ccccc1
T/C (dose: 50.0 mg/kg/injection, schedule: Q01DX009 (ip), vehicle: saline with Tween-80): 100 % of control and 118 % of control | T/C (dose: 100.0 mg/kg/injection, schedule: Q01DX009 (ip), vehicle: saline with Tween-80): 101 % of control and 121 % of control

COc1cc(CC2c3cc(OC)c(OC)cc3CCN2C)c(NC(=O)c2ccc(C(=O)Nc3cc(OC)c(OC)cc3CC3c4cc(OC)c(OC)cc4CCN3C)cc2)cc1OC (centres undefined)
T/C (dose: 12.5 mg/kg/injection, schedule: Q01DX009 (ip), vehicle: other): 90 % of control | T/C (dose: 25.0 mg/kg/injection, schedule: Q01DX009 (ip), vehicle: other): 92 % of control | T/C [1]: 86 % of control | T/C [2]: 92 % of control | T/C (dose: 400.0 mg/kg/injection, schedule: Q01DX009 (ip), vehicle: other): 104 % of control

Nc1nc(F)nc2c1nnn2C1OC(CO)C(O)C1O (centres undefined)
T/C (dose: 12.5 mg/kg/injection, schedule: Q01DX001 (ip), vehicle: saline): 112 % of control | T/C (dose: 25.0 mg/kg/injection, schedule: Q01DX001 (ip), vehicle: saline): 109 % of control | T/C (dose: 50.0 mg/kg/injection, schedule: Q01DX001 (ip), vehicle: saline): 109 % of control | T/C (dose: 50.0 mg/kg/injection, schedule: Q01DX005 (ip), vehicle: saline): 121 % of control | T/C (dose: 100.0 mg/kg/injection, schedule: Q01DX001 (ip), vehicle: saline): 104 % of control | T/C (dose: 100.0 mg/kg/injection, schedule: Q01DX005 (ip), vehicle: saline): 114 % of control

O=C(CCl)NC1(C(=O)O)CCCC1
T/C [3]: 94 % of control | T/C [4]: 90 % of control | T/C (dose: 200.0 mg/kg/injection, schedule: Q01DX009 (ip), vehicle: Klucel (hydroxypropylcellulose) (HPC)): 97 % of control

OCC1OC(n2cnc3c(NO)ncnc32)CC1O (centres undefined)
T/C (dose: 12.5 mg/kg/injection, schedule: Q01DX009 (ip), vehicle: Klucel (hydroxypropylcellulose) (HPC)): 100 % of control | T/C (dose: 25.0 mg/kg/injection, schedule: Q01DX009 (ip), vehicle: Klucel (hydroxypropylcellulose) (HPC)): 112 % of control | T/C [3]: 100 % of control | T/C [4]: 100 % of control

CC(=O)N(C)N=NCCCl
T/C (dose: 13.12 mg/kg/injection, schedule: Q01DX005 (ip), vehicle: saline with Tween-80): 157 % of control | T/C (dose: 26.15 mg/kg/injection, schedule: Q01DX005 (ip), vehicle: saline with Tween-80): 217 % of control | T/C (dose: 52.5 mg/kg/injection, schedule: Q01DX005 (ip), vehicle: saline with Tween-80): 257 % of control | T/C (dose: 105.0 mg/kg/injection, schedule: Q01DX005 (ip), vehicle: saline with Tween-80): 171 % of control

COc1ccc(C(=O)Nc2ccccc2CCC2CCCCN2C)cc1 (centres undefined)
T/C (dose: 6.25 mg/kg/injection, schedule: Q01DX009 (ip), vehicle: saline): 95 % of control | T/C (dose: 12.5 mg/kg/injection, schedule: Q01DX009 (ip), vehicle: saline): 95 % of control | T/C (dose: 25.0 mg/kg/injection, schedule: Q01DX009 (ip), vehicle: saline): 92 % of control | T/C (dose: 25.0 mg/kg/injection, schedule: Q01DX009 (ip), vehicle: suspension in saline): 100 % of control

CCCCN(CCCC)CNC(=O)c1ccccc1
T/C (dose: 50.0 mg/kg/injection, schedule: Q01DX005 (ip), vehicle: saline with Tween-80): 97 % of control | T/C (dose: 100.0 mg/kg/injection, schedule: Q01DX005 (ip), vehicle: saline with Tween-80): 100 % of control

CC(O)CNC1=C(Cl)C(=O)c2ccccc2C1=O (centres undefined)
T/C (dose: 12.5 mg/kg/injection, schedule: Q01DX009 (ip), vehicle: distilled water + Tween-80): 100 % of control | T/C (dose: 25.0 mg/kg/injection, schedule: Q01DX009 (ip), vehicle: distilled water + Tween-80): 103 % of control | T/C (dose: 50.0 mg/kg/injection, schedule: Q01DX009 (ip), vehicle: distilled water + Tween-80): 100 % of control | T/C (dose: 100.0 mg/kg/injection, schedule: Q01DX009 (ip), vehicle: distilled water + Tween-80): 98 % of control | T/C (dose: 200.0 mg/kg/injection, schedule: Q01DX009 (ip), vehicle: distilled water + Tween-80): 92 % of control

O=c1[nH]c2ccccc2n1CCCN1CCC(n2c(=O)[nH]c3cc(Cl)ccc32)CC1
T/C (dose: 50.0 mg/kg/injection, schedule: Q01DX009 (ip), vehicle: saline): 90 % of control | T/C (dose: 100.0 mg/kg/injection, schedule: Q01DX009 (ip), vehicle: saline): 91 % of control | T/C (dose: 200.0 mg/kg/injection, schedule: Q01DX009 (ip), vehicle: saline): 88 % of control

NNc1nc(N2CCCCC2)ns1
T/C (dose: 2.5 mg/kg/injection, schedule: Q01DX009 (ip), vehicle: saline with Tween-80): 98 % of control | T/C (dose: 5.0 mg/kg/injection, schedule: Q01DX009 (ip), vehicle: saline with Tween-80): 110 % of control | T/C (dose: 10.0 mg/kg/injection, schedule: Q01DX009 (ip), vehicle: saline with Tween-80): 120 % of control
